“Also recorded” adds a separate entry of the source.
Molecular target: T1, human GLUT5 (Homo sapiens, UniProt P22732)
T1 construct: Full length DNA was subcloned into pFastBac1 (Life Technologies) vector with a N-terminal hexahistidine tag; hexahistidine (N); made in house; host or cells: Sf21 insect cells (baculovirus, pFastBac1)
T1 sequence (P22732 1-501): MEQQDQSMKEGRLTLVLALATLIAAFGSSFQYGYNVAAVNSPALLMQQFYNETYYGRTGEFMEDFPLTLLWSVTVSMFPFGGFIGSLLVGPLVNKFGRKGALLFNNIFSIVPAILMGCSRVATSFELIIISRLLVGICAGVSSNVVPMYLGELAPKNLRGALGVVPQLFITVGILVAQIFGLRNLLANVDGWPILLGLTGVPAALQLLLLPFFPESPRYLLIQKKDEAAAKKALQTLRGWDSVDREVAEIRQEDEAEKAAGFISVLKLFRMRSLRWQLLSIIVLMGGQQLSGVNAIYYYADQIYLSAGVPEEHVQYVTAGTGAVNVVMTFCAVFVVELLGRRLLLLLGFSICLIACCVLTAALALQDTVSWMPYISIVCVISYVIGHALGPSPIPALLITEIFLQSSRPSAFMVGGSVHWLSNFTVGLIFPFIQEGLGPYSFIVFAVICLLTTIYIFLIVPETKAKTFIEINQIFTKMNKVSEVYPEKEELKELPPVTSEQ
Test: Fructose entrance counter-flow transport in GLUT5 proteoliposomes
Format: biochemical
Conditions: for effect on GLUT5 fructose transport: 2 mM compound, one minute
Description: cDNAs of GLUT1, 3, 4 and 5 were purchased from Open Biosystems (GE Healthcare). cDNAs of GLUT2 was a gift from Prof. Graeme Bell at University of Chicago. Full length DNA was subcloned into pFastBac1 (Life Technologies) vector with a N-terminal hexahistidine tag. Bacmids were generated in DH10Bac E. coli cells (Life Technologies). Baculoviruses were produced using Cellfectin II Reagent and amplified in Sf21 insect cells (Life Technologies). Cells were maintained at 26° C., and P1 (10^6 pfu/mL) was collected from infected cells after 72 hours. SF21 cells were propagated in HyClone SFX-Insect media (GE Healthcare), supplemented with 5% fetal bovine serum (Biowest), 4.8 mM glutamine, antibiotics (100 units/mL Penicillin G and 100 μg/mL streptomycin sulfate) and amphotericin B (2.5 μg/mL). For recombinant protein expression, SF21 cells in suspension culture at 2×10^6 cells/ml were infected with P3 viral stock (10^8 pfu/mL), at an MOI of 1.0 pfu/cell. Four days after viral infection, cells from 1 L culture were collected by centrifugation at 2,000 g and 25 °C. The cell pellet was resuspended in 120 mL of 50 mM sodium phosphate (NaPi) (pH 7.5), 5% (v/v) glycerol, 200 mM sodium chloride (buffer A), with protease inhibitors (1 mM AEBSF, 10 μM E-64, 10 μM pepstatin A, 1 μM Aprotinin, 20 μM Bestatin, 20 μM Leupeptin), at 4° C., and disrupted by sonication (Branson Ultrasonic). n-Dodecyl-β-D-maltopyranoside (DDM, EMD chemicals) was added to a final concentration of 1% (w/v) in the broken cell solution, and the mixture was incubated at 4° C. with stirring, for 4 hours. The solubilized protein solution was clarified by ultracentrifugation at 200,000 g and 4° C. for 1 hour, and the supernatant was loaded onto the Ni-NTA resin (Novagen) and washed with buffer containing 50 mM NaPi (pH 7.5), 500 mM NaCl, 5-20 mM imidazole, 5% (v/v) glycerol and 0.05% (w/v) DDM. GLUT1 (or GLUT2-5, wild-type or mutants) was eluted with buffer A, containing 300 mM imidazole and 0.05% DDM (w/v). To generate DNA for mutant proteins, site-directed mutagenesis was performed on the pFastBac1 plasmid constructs of wild-type proteins and verified by DNA sequencing^37. Mutant proteins were expressed and purified in the same manner as wild-type proteins with no modifications.
Proteoliposomes were generated according to the protocol of^16,38 with minor modifications. Liposomes were made from a 95%/5% mix of soy phosphatidylcholine and cholesterol (Avanti Polar Lipids). Prepared liposomes were destabilized with 4 mM Triton X-100 and mixed with purified protein in a 100:1 (w/w) ratio in 100 mM KPi (pH 7.5), 20% (v/v) glycerol, 200 mM glucose for GLUT1-4 and GLUT1F379H or fructose for GLUT5 (wild-type and H387F mutant) and GLUT2. Detergent was removed by several additions of SM2 BioBeads (BioRad) and incubated overnight at 4° C. […]
For the entrance counterflow transport in proteoliposomes, the assay was started by the addition of 5 μL proteoliposomes solution (OD600 nm ˜30) to 200 μL, assay solution, containing 10 μM ^14C-radiolabeled glucose (for GLUT1 wild-type or F379H mutant and GLUT2-4) or fructose (for GLUT5 wild-type or H387F mutant and GLUT2) (Moravek Biochemicals) in 100 mM KPi buffer at pH 7.5. After one minute (or different specified time points when the time-dependent counter-flow transport activity was measured), the transport was stopped with ice-chilled quench buffer [0.1 M KPi (pH 5.5) and 0.1 M lithium chloride]. […]

SMILES | effect on GLUT5 fructose transport (proteoliposomes) | inhibitory activity against GLUT5 in screen of 175 purchased compounds (1 mM compound, fructose transport in proteoliposomes) | IC50 (proteoliposomes, 10 μM C14-fructose, measured one minute after transport initiation, read-out: IC50 of inhibition of GLUT5 fructose transport)
O=C(CCc1ccc(O)cc1)c1c(O)cc(O)cc1O [phloretin, reference compound] | did not alter | – | –
C=C1[C@@H](C)[C@H]2[C@H](Cc3ccccc3)NC(=O)[C@]23OC(=O)/C=C/[C@H](O)CCC[C@@H](C)C/C=C/[C@H]3[C@@H]1O [cytochalasin B, reference compound] | did not alter | – | –
CS(=O)(=O)c1ccc(Nc2ccc3c(c2)OCO3)c([N+](=O)[O-])c1 [MSNBA, N-[4-(methylsulfonyl)-2-nitrophenyl]-1,3-benzodioxol-5-amine] | completely abolished | inhibitor of GLUT5; also recorded: inhibitory activity | 100 ± 30 µM

— patent publication US10822325B2, “Human GLUT5 specific inhibitors and methods of treatment” (UNM RAINFOREST INNOVATIONS, priority 2015, dated 2020)
